The source of these data is US4716222A, “Substrates for hydrolases” (Hoechst Aktiengesellschaft, priority 1984, dated 1987).

One series can be described thus: pKa of the dyes A-OH. The format is physicochemical. The text has this:
The compounds of the formula A--O--B can be used as substrates for the detection and the determination of hydrolases. The dye A--OH, which is liberated on cleavage, has appreciable advantages over those of the state of the art. […] This means that even in the pH range below 7 there is compared with p-nitrophenol, a considerably higher extinction at the same molarity, so that the new substrates prepared from these dyes can therefore be measured with considerably greater sensitivity.

A short description of series [1]: Extinction coefficients and absorption maxima of dyes at different pH values. The class given is physicochemical.
Another series concerns β-glucosidase. The experiment in a line: Determination of β-glucosidase activity in a urine sample. The class given is biochemical, human. The settings on record: for Absorbance Difference/min delta A/min: T = 25° C. The source says: The determination of β-glucosidase activity in human urine has hitherto not been possible with the usual assays because of their limited sensitivity.

Series [2] has as its target T1, β-galactosidase (Homo sapiens, UniProt P16278).
T1 construct: from tissue; host or cells: human urine
T1 sequence (P16278 29-677): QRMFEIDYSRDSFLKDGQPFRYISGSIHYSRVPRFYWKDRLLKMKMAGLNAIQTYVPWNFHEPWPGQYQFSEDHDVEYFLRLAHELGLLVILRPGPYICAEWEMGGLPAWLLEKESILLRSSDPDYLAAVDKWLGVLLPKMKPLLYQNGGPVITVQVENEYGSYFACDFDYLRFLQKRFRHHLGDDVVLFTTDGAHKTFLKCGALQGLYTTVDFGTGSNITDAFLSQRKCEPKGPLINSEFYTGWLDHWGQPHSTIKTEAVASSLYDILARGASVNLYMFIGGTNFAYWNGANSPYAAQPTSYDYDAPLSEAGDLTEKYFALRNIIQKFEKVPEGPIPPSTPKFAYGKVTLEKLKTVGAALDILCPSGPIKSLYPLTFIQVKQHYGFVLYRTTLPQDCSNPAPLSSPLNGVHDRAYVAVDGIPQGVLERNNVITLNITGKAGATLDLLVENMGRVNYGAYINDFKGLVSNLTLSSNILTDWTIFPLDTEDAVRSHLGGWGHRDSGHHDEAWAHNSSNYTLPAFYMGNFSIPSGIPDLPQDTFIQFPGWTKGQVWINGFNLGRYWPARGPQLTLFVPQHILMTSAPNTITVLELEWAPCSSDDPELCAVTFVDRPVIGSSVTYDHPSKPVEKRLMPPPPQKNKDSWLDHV
As to the kind of experiment: Kinetic determination of β-galactosidase activity in human urine. The class given is biochemical. The procedure: (§1) The β-galactosidase activity could be kinetically measured in human urine by the use of 2H-7-O-(β-D-galactopyranosyl)-4-methyl-8-nitrobenzopyran-2-one (compound S15). An extinction change of 4 mE/min was recorded at 23° C. and 366 nm with the use of 200 μl of buffered substrate solution and 200 μl of urine of normal concentration. […] Also, β-galactosidase in human urine could be kinetically determined by using resorufin-β-D-galactopyranoside (compound S6). […] The activity of β-glucuronidase in human urine could be kinetically measured with 2H-7-O-(β-D-glucuronopyranosyl)-4-methyl-8-nitrobenzopyran-2-one (compound S9).

In the next series the test system is IgE. The experiment in a line: Determination of IgE with a state of the art enzyme immunoassay. The settings on record: same incubation periods; for absorbance change: same sample. Here is the method:
A substantial increase in sensitivity could be achieved using the new substrates in an enzyme immunoassay of the state of the art. In this assay the IgE concentration is determined, as a measure of an allergy by means of the indirect antibody technique. With the same incubation periods for the different substrates, an approximately 4.3-fold higher absorbance for resorufin-β-galactoside (compound S6) and an approximately 1.7-fold higher absorbance for 3-hydroxy-2-nitropyridine-β-galacto-side was measured than for the commercially available o-nitrophenyl-β-galactoside.

The target in a further series is T2, N-acetylglucosaminidase (Homo sapiens, UniProt P06865+P07686).
T2 construct: from tissue; host or cells: human urine, 10-fold concentrated
T2 sequence (P07686 122-556): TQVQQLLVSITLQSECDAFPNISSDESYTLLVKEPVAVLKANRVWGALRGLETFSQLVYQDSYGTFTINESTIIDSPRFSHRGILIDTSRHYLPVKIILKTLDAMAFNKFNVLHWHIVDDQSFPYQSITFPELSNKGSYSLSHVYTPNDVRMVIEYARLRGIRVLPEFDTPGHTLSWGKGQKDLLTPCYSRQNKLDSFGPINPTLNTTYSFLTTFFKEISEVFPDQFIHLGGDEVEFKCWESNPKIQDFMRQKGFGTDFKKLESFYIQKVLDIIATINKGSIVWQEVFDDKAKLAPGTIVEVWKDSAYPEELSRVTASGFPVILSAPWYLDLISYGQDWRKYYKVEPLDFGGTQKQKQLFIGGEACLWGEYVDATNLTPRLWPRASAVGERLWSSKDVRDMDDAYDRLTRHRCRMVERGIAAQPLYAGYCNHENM
T2 sequence (P06865 89-529): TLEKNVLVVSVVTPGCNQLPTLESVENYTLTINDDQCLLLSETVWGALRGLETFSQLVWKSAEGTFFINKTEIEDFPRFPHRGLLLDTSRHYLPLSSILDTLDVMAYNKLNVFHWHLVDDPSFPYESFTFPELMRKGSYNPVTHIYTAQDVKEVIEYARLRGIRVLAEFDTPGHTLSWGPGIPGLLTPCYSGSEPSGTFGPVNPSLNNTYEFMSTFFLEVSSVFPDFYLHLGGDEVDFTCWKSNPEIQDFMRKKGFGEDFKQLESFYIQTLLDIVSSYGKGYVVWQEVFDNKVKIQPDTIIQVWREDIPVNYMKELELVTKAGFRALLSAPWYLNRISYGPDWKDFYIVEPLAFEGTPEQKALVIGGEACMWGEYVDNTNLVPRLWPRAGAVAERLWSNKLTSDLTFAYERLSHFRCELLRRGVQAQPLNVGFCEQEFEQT
The experiment in a line: Kinetic determination of N-acetylglucosaminidase activity in human urine. The format is biochemical. Conditions: 365 nm, 10-fold concentrated normal urine. Here is the method: The activity in human urine (10-fold concentrated) can also be kinetically determined with S8. The determination with 0.5 buffered substrate solution and 0.1 ml 10-fold concentrated normal urine at 37° C. and 365 nm gave an absorbance change of 0,023 A/min at pH 5.5 and of 0,014 A/min at pH 4.5.

Series [3] deals with N-acetyl-β-glucosaminidase. The experiment in a line: Determination of N-acetylglucosaminidase (enzyme from ox kidney). The class given is biochemical. Here is the method:
The sensitivity of the substrates p-nitrophenyl N-acetylaminoglucoside and 2H-7-O-(2-acetamido-2-deoxy-D-glucopyranosyl)-4-methyl-8-nitrobenzopyran-2-one ([…]) were compared to each other using N-acetyl-β-glucosaminidase from ox kidney. To 0.5 ml of substrate solution was added 0.1 ml of an enzyme solution diluted 1:101 (Sigma) and the absorbance change determined at 22° C. and 405 or 365 nm.

The next series has as its target T3, acid phosphatase (Homo sapiens, UniProt P15309).
T3 construct: from tissue; host or cells: seminal plasma, diluted 1:101
T3 sequence (P15309 33-386): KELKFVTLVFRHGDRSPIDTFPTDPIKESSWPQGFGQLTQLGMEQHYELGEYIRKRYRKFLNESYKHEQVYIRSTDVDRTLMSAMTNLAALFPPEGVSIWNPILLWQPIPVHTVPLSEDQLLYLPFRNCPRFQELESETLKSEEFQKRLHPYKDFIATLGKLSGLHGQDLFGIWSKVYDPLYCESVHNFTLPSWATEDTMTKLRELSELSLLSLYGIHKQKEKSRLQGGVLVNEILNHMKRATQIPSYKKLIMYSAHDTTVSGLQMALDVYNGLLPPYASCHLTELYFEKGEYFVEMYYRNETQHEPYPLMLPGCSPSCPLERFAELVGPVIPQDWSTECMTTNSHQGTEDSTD
As to the kind of experiment: Kinetic determination of acid phosphatase in seminal plasma. The format is biochemical. The procedure:
The activity of acid phosphatase could be kinetically determined substantially more sensitively with 2H-7-O-4-methyl-8-nitrobenzopyran-2-one phosphate (compound S13) than with nitrophenyl phosphate. The determination was carried out in seminal plasma, diluted 1:101 using both substrates. 0.01 ml of diluted sample was added to 1 ml of a buffered substrate solution, pH 4.8 and the extinction changes kinetically recorded at 405 or 365 nm.

Series [4] has as its system β-galactosidase. As to the kind of experiment: Cleavage of the substrate by β-galactosidase (specificity). The format is biochemical. Here is the method:
The activity of the β-galactosidase in human urine could be kinetically determined by the use of 3-O-([…])-3-hydroxy-2-nitropyridine. For this purpose 0.2 ml of 10-fold concentrated normal urine was added to 1 ml of buffered substrate solution and the extinction change recorded at 405 nm and 22° C. Under these conditions an extinction difference of 1.2 mE/min was measured.
as §1

In “pKa of the dyes A-OH”, `O=[N+]([O-])c1ncccc1O` [3-Hydroxy-2-nitropyridine] yielded a pKa of 5.1. The Extinction coefficient in [1] (pH 4.0, 405 nm) was 0.50 1·mol^-1·cm^-1·10^3; in series [1] (pH 5.0, 405 nm), 2.32 1·mol^-1·cm^-1·10^3; in [1] (pH 6.0, 405 nm), 5.09 1·mol^-1·cm^-1·10^3; in [1] (pH 7.1, 405 nm), 5.80 1·mol^-1·cm^-1·10^3; in series [1] (pH 10, 405 nm), 5.90 1·mol^-1·cm^-1·10^3.

In turn, `O=[N+]([O-])c1ccnc(Cl)c1O` [3-Hydroxy-4-nitro-2-chloropyridine] came in with a pKa in the series “pKa of the dyes A-OH” of 3.1. Further, the Extinction coefficient in [1] (pH 4.0, 405 nm) is reported as 4.93 1·mol^-1·cm^-1·10^3; in series [1] (pH 5.0, 405 nm), 5.34 1·mol^-1·cm^-1·10^3; in series [1] (pH 6.0, 405 nm) it was 5.40 1·mol^-1·cm^-1·10^3; in series [1] (pH 7.1, 405 nm), 5.48 1·mol^-1·cm^-1·10^3; in [1] (pH 10, 405 nm), 5.4 1·mol^-1·cm^-1·10^3.

In turn, `N#Cc1c2ccc(=O)cc-2oc2cc(O)ccc12` [compound C1, 3H-7-Hydroxy-9-cyanoxanthen-3-one] came in with a pKa in the series “pKa of the dyes A-OH” of 5.55. For the same molecule, in [1], the absorption maximum came to 578 nm. Further, in [1] (578 nm and pH 7.1), the molar extinction coefficient is listed as 64,420 1.mol^-1.cm^-1.

For `O=[N+]([O-])c1ncccc1O[C@@H]1O[C@H](CO)[C@@H](O)[C@H](O)[C@H]1O` [compound S5, 3-O-(β-D-Glucopyranosyl)-2-nitropyridine], in the series on β-glucosidase, the “fold larger absorbance change per minute than with p-nitrophenyl β-D-glucopyranoside” value is reported as “approximately 7 fold” and the “Absorbance Difference/min delta A/min” value is 0,332 A/min.

With `O=c1ccc2nc3ccc(O[C@@H]4O[C@H](CO)[C@H](O)[C@H](O)[C@H]4O)cc3oc-2c1` [compound S6, Resorufin-8-β-D-galactopyranoside], the absorbance change is reported as 0,0038 A/min at β-galactosidase [2] (578 nm, 37° C., human urine) and 0.761 with IgE (measuring wavelength 576 nm). Besides, in the series on IgE, the “fold higher absorbance than o-nitrophenyl-β-galactoside” value was “approximately 4.3 fold”.

Regarding `O=[N+]([O-])c1ncccc1O[C@@H]1O[C@H](CO)[C@H](O)[C@H](O)[C@H]1O` [compound S7, 3-O-(β-D-Galactopyranosyl)-2-nitropyridine], the absorbance change in the series with IgE (measuring wavelength 405 nm) came out at 0.298. Besides, in the series with IgE, the “fold higher absorbance than o-nitrophenyl-β-galactoside” value was “approximately 1.7 fold”.

Turning to `CC(=O)N[C@H]1[C@H](Oc2ccc3c(C)cc(=O)oc3c2[N+](=O)[O-])O[C@H](CO)[C@@H](O)[C@@H]1O` [compound S8], the absorbance change was 0,014 A/min on N-acetylglucosaminidase (pH 4.5, 37° C.) and 0,023 A/min at N-acetylglucosaminidase (pH 5.5, 37° C.). The “absorbance change, fold greater than with p-nitrophenyl acetylaminoglucoside” value in series [3] (pH 4.5) was approximately 36 fold. Further, the delta A/min in series [3] (pH 4.5, 22° C., 405 or 365 nm, enzyme solution diluted 1:101) came out at 0.266 A/min.

On to `Cc1cc(=O)oc2c([N+](=O)[O-])c(OP(=O)(O)O)ccc12` [compound S13, 2H-7-O-(Phosphoryl)-4-methyl-8-nitrobenzopyran-2-one], for which the “absorbance change, fold greater than for nitrophenyl phosphate” value on acid phosphatase is “about 13 fold”. The “Ratio of the absorbance changes” value at acid phosphatase (relative to p-nitrophenyl phosphate) turned out to be 13. Also, at acid phosphatase (seminal plasma diluted 1:101, pH 4.8, 405 or 365 nm), the “delta A/min” value was 0,0975 A/min.

Consider `Cc1cc(=O)oc2c([N+](=O)[O-])c(O[C@@H]3O[C@H](CO)[C@H](O)[C@H](O)[C@H]3O)ccc12` [compound S15, 2H-7-O-(β-Galactopyranosyl)-4-methyl-8-nitrobenzopyran-2-one], for which the extinction change on β-galactosidase [2] (23° C., 366 nm, 200 μl buffered substrate solution + 200 μl urine of normal concentration) came to 4 mE/min. Also, the “cleavage by β-galactosidase” value in the series on β-galactosidase [4] is listed as “not cleaved by β-galactosidase”.

In “pKa of the dyes A-OH”, `O=[N+]([O-])c1ccccc1O` [o-Nitrophenol] returned a pKa of 7.08. Further, the Extinction coefficient in series [1] (pH 4.0, 405 nm) is listed as 0.47 1·mol^-1·cm^-1·10^3; in [1] (pH 5.0, 405 nm), 0.48 1·mol^-1·cm^-1·10^3; in series [1] (pH 6.0, 405 nm), 0.75 1·mol^-1·cm^-1·10^3; in series [1] (pH 7.1, 405 nm), 2.34 1·mol^-1·cm^-1·10^3; in [1] (pH 10, 405 nm) it was 4.01 1·mol^-1·cm^-1·10^3.

With `O=[N+]([O-])c1ccccc1O[C@@H]1O[C@H](CO)[C@H](O)[C@H](O)[C@H]1O` [o-Nitrophenyl galactoside, o-nitrophenyl-β-galactoside], in the series with IgE (measuring wavelength 405 nm), the absorbance change was found to be 0.176.

As for `O=[N+]([O-])c1ccc(O[C@@H]2O[C@H](CO)[C@@H](O)[C@H](O)[C@H]2O)cc1` [p-nitrophenyl derivative, p-nitrophenyl β-D-glucopyranoside], the “Absorbance Difference/min delta A/min” value in the series with β-glucosidase is reported as 0,0476 A/min.

Broadly, the pKa is the negative logarithm of the acid dissociation constant.
